Measurements from patent US20230051204A1, “ANTIMICROBIAL COMPOSITION CONTAINING WASP EXTRACT AS ACTIVE INGREDIENT” (priority 2021, published 2023).
“And” between values parts separate entries of the source, which are not always exact repeats. Equal entries are not always repeated.

Key:
[1] = test system: Staphylococcus epidermidis ATCC 12228; experiment: Disc-paper clear zone test, antibacterial; assay type: cell-based; parameters: key: —: no clear zone; settings: antibiotic 1 μg/disc; SE
Source text: (§1) For evaluation of the antibacterial activities, the following strains were used: Escherichia coli KCTC 1682, Proteus vulgaris KCTC 2433, Pseudomonas aeruginosa KACC 10186, and Salmonella typhimurium KCTC 1926, which are Gram-negative bacteria, and Staphylococcus aureus KCTC 1916, Staphylococcus epidermidis ATCC 12228, and Listeria monocytogenes KACC 10550, Bacillus subtilis KCTC 1924, which are Gram-positive bacteria. Meanwhile, for evaluation of the antifungal activities, Saccharomyces cerevisiae IF0 0233 and Candida albicans KCTC 1940 that causes Candidiasis fungal infection were used.
(§2) First, for evaluation of the antibacterial activities, each bacterial strain was inoculated into nutrient broth (Difco Co., USA) and cultured at 37° C. for 24 hours. Then, each strain was adjusted to an O.D.600 of 0.1, and then 100 μl of each strain was plated on a Petri dish (90 mm, Green Cross, Korea) containing nutrient agar (Difco Co., USA) medium, and 5 μl of each extract sample added to sterile disc-paper (6.5 mm diameter, Whatsman No. 2) was added to each strain which was then incubated at 37° C. for 24 hours. For evaluation of the antifungal activities, each fungal strain was cultured using Sabouraud dextrose (Difco Co. USA) at 30° C. for 24 hours in the same manner as described above, and the antifungal activity of each extract sample was evaluated by measuring the size of the clear zone. As a control, each of the antibacterial agent ampicillin and the antifungal agent miconazole (Sigma Co., USA) was at a concentration of 1 μg/disc. The size of the clear zone was measured by measuring, in units of mm, the diameter of the part where growth was invisible with the naked eye, and was expressed as a representative result after three or more evaluations.
(§3) The antimicrobial activities of the fraction of each of the Vespa velutina nigrithorax, V. simillima simillima Smith and V. mandarinia Smith extracts, prepared in Example 4, were measured according to the same method as the antibacterial and antifungal activity evaluation described in Example 3.

[2] = test system: Proteus vulgaris KCTC 2433; experiment: Disc-paper clear zone test, antibacterial; assay type: cell-based; parameters: key: —: no clear zone; settings: antibiotic 1 μg/disc; PV
Source text: as §1, §2, §3

[3] = test system: Pseudomonas aeruginosa KACC 10186; experiment: Disc-paper clear zone test, antibacterial; assay type: cell-based; parameters: key: —: no clear zone; settings: antibiotic 1 μg/disc; PA
Source text: as §1, §2, §3

[4] = test system: Escherichia coli KCTC 1682; experiment: Disc-paper clear zone test, antibacterial; assay type: cell-based; parameters: key: —: no clear zone; settings: antibiotic 1 μg/disc; EC
Source text: as §1, §2, §3

[5] = test system: Bacillus subtilis KCTC 1924; experiment: Disc-paper clear zone test, antibacterial; assay type: cell-based; parameters: key: —: no clear zone; settings: antibiotic 1 μg/disc; BS
Source text: as §1, §2, §3

[6] = test system: Salmonella typhimurium KCTC 1926; experiment: Disc-paper clear zone test, antibacterial; assay type: cell-based; parameters: key: —: no clear zone; settings: antibiotic 1 μg/disc; ST
Source text: as §1, §2, §3

[7] = test system: Listeria monocytogenes KACC 10550; experiment: Disc-paper clear zone test, antibacterial; assay type: cell-based; parameters: key: —: no clear zone; settings: antibiotic 1 μg/disc; LM
Source text: as §1, §2, §3

[8] = test system: Staphylococcus aureus KCTC 1916; experiment: Disc-paper clear zone test, antibacterial; assay type: cell-based; parameters: key: —: no clear zone; settings: antibiotic 1 μg/disc; SA
Source text: as §1, §2, §3

[9] = test system: Saccharomyces cerevisiae IF0 0233; experiment: Disc-paper clear zone test, antifungal; assay type: cell-based; parameters: key: —: no clear zone; settings: antibiotic 1 μg/disc; SC
Source text: as §1, §2, §3

[10] = test system: Candida albicans KCTC 1940; experiment: Disc-paper clear zone test, antifungal; assay type: cell-based; parameters: key: —: no clear zone; settings: antibiotic 1 μg/disc; CA
Source text: as §1, §2, §3

human erythrocytes = experiment: Human erythrocyte hemolytic activity; settings: 37° C., 30 minutes
Procedure: In order to evaluate the acute toxicities of the Vespa velutina nigrithorax, V. simillima simillima Smith and V. mandarinia Smith extracts and the fractions thereof, the human erythrocyte hemolytic activities thereof were evaluated. At this time, the hemolytic activity was evaluated according to a previous report (Son Ho-Yong et al., 2014, Korean J. Microbiol. Biotechnol. 42: 285-292). Briefly, 100 μl of human erythrocytes were washed three times with PBS and added to a 96-well microplate, and 100 μl of a sample solution at various concentrations was added thereto and then allowed to react at 37° C. for 30 minutes. Thereafter, the reaction solution was centrifuged at 1,500 rpm for 10 minutes, and 100 μl of the supernatant was transferred to a fresh microtiter plate, and then the degree of hemoglobin leakage following hemolysis was measured at 414 nm. DMSO (2%) was used as a solvent control for the sample, and Triton X-100 (1 mg/ml) was used as an experimental control for hemolysis of erythrocytes. Hemolytic activity was calculated using the following equation.
(%) Hemolysis=[(Abs. S−Abs. C)/(Abs. T−Abs. C)]×100
Abs. S: absorbance of sample-added group
Abs. C: absorbance of DMSO-added group
Abs. T: absorbance of Triton X-100-added group

[11] = test system: gram-positive bacteria, gram-negative bacteria and fungi; experiment: Disc-paper clear zone test, summary over the whole panel; assay type: cell-based; settings: 1 μg/disc; span over the gram-positive and gram-negative bacteria; read-out: Clear zone size
Source text: as §1
First, for evaluation of the antibacterial activities, each bacterial strain was inoculated into nutrient broth (Difco Co., USA) and cultured at 37° C. for 24 hours. […] For evaluation of the antifungal activities, each fungal strain was cultured using Sabouraud dextrose (Difco Co. USA) at 30° C. for 24 hours in the same manner as described above, and the antifungal activity of each extract sample was evaluated by measuring the size of the clear zone. […] The size of the clear zone was measured by measuring, in units of mm, the diameter of the part where growth was invisible with the naked eye, and was expressed as a representative result after three or more evaluations.

Compound | Clear zone [1] | Clear zone [2] | Clear zone [3] | Clear zone [4] | Clear zone [5] | Clear zone [6] | Clear zone [7] | Clear zone [8] | Clear zone [9] | Clear zone [10] | Human erythrocyte hemolytic activity (human erythrocytes; 1.0 mg/ml) | zone of inhibition at 1 µg/disc [11] | Human erythrocyte hemolytic activity (human erythrocytes; 0.0032 mg/ml) | Human erythrocyte hemolytic activity (human erythrocytes; 0.0063 mg/ml) | Human erythrocyte hemolytic activity (human erythrocytes; 0.0125 mg/ml) | Human erythrocyte hemolytic activity (human erythrocytes; 0.05 mg/ml) | Human erythrocyte hemolytic activity (human erythrocytes; 0.1 mg/ml)
Clc1ccc(COC(Cn2ccnc2)c2ccc(Cl)cc2Cl)c(Cl)c1 (stereo not drawn) [Miconazole, miconazole] | — | — | — | — | — | — | — | — | 8.5 mm | 8.5 mm |  |  |  |  |  |  | 
Triton X-100 |  |  |  |  |  |  |  |  |  |  | 100% and 100.0 ± 0.1% |  |  |  |  |  | 
CC1(C)S[C@@H]2[C@H](NC(=O)[C@H](N)c3ccccc3)C(=O)N2[C@H]1C(=O)O [Ampicillin, ampicillin] | 20.0 mm | 30.0 mm | 16.0 mm | 9.0 mm | 23.5 mm | 20.0 mm | 26.0 mm | 26.0 mm | — | — |  | 9 to 30 mm |  |  |  |  | 
C[C@@H]1[C@H](O)[C@@H](C)/C=C/C=C/C=C/C=C/C=C/C=C/C=C/[C@H](O[C@@H]2O[C@H](C)[C@@H](O)[C@H](N)[C@@H]2O)C[C@@H]2O[C@](O)(C[C@@H](O)C[C@@H](O)[C@H](O)CC[C@@H](O)C[C@@H](O)CC(=O)O[C@H]1C)C[C@H](O)[C@H]2C(=O)O [Amphotericin B] |  |  |  |  |  |  |  |  |  |  |  |  | 6.5 ± 0.9% | 21.6 ± 3.7% | 48.2 ± 5.9% | 72.4 ± 5.2% | 95.8 ± 0.3%
